Experiment [1] deals with allergic edema reaction at paw. Nature of the experiment: Test for suppressing immediate and delayed allergic reaction (allergic edema reaction at paw, DNP-OA). The experiment is classed as in vivo, rat (male Wister). Particulars: Rattus norvegicus; for inhibition in vivo at 10 mg/kg: oral. On the procedure: Test for suppressing immediate and delayed allergic reaction
1×10^10 of inviable pertussis and 1 mg of dinitrophenylated ovalbumin (DNP-OA) were administered subcutaneously to the three paws except the right hind paw of male Wister rats having a body weight of 200 g. After 10 days, 5 μg of DNP-OA was further administered subcutaneously to the right hind paw of the animals to induce the allergic edema reaction at paw. The allergy suppressing effect of the test compounds was examined with reference to the edema volumes after 30 minutes and 8 hours of the induction of the allergic reaction as the immediate and delayed allergic reactions, respectively.
[…] On the other hand, only a solution of 0.25% Tween 80 was orally administered to rats as the untreated control, and 100 mg/kg of sodium chromoglycate subcutaneously or orally to rats as the positive control.
The rate of suppressing the allergic edema reaction at paw was calculated from the following equation.
Suppression rate of the allergic edema reaction at paw
A is an average edema volume in the control, and
B is an average edema volume in the drug treated group.

The conditions of experiment [2]: cited from earlier work.
Experiment [3] relates to histamine releasing reaction. Nature of the experiment: Test of suppressing histamine releasing reaction (abdominal cavity cells of rats sensitised with anti-DNP-As serum, stimulated with DNP-As). Particulars: Rattus norvegicus; cells 10^5 cell/ml stimulated with 1 μg/ml DNP-As; test compounds 10^-5 -10^-10 M; read-out: IC50 (suppression of histamine releasing reaction). It counts as cell-based, rat (male Wister). Here is the method:
Test of suppressing histamine releasing reaction
Rat anti-dinitrophenylated ascaris protein (referred to hereinafter as DNP-As) serum was prepared according to the method described by Tada, T. and Okumura, K., J. Immun., 106 (4), 1971. Briefly, 1×10^10 of inviable pertussis and 1 mg of DNP-As were administered subcutaneously to the paw of female Brown Norway rats having a body weight of 200 g. After five days, 0.5 mg of DNP-As was further administered intramuscularly to the rear of the animals. Blood samples were taken after three days of the administration to prepare anti-serum.
A 1 ml portion of the serum diluted four times with physiological saline was administered intraperitoneally to male Wister rats. After two days, abdominal cavity was rinsed with phosphate buffer to recover the cells within the abdominal cavity. After the cell concentration was adjusted to 10^5 cell/ml, the cells were stimulated with 1 μg/ml of DNP-As. The amount of histamine released into the supernatant was measured according to the method described by Shore, P. A., Burkhalter, A. H. and Chon, V. H. Jr., J. Pharm. Exp. Ther., 127, 182-186 (1959).
A dose for suppressing 50% of the histamine releasing reaction, i.e., IC50 value, was calculated from the amounts of histamine released in the group treated with the test compounds in the molar concentrations (M) of 10^-5 -10^-10 and in the control group. The IC50 value as the suppressing effect of the drugs is shown in Table 6 with the IC50 value of sodium chromoglycic acid selected as the control compound.

Where [4] appears, read: 0.5 h, edema volume 30 minutes after induction, read-out: Suppressing Rate, Immediate Reaction.
Where [5] appears, read: edema volume 8 hours after induction, read-out: Suppressing Rate, Slow reaction.

The values that follow come from patent publication US5840895A, “Triazole intermediates for tricyclic benzazepine and benzothiazepine derivatives” (Meiji Seika Kabushiki Kaisha, priority 1993, dated 1998).

What is called IC50 is the concentration that inhibits the measured activity by half.

Read-outs that look alike come from different tables or passages of the source.

For the compound `O=C(O)c1cc(=O)c2c(OCC(O)COc3cccc4oc(C(=O)O)cc(=O)c34)cccc2o1` [DSCG, sodium chromoglycate, reference compound], the inhibition in vivo at 100 mg/kg was 16% in experiment [1] (po, 0.5 h, orally, 30 minutes after induction (positive control), read-out: Suppressing Rate, Immediate Reaction); 20% in experiment [1] (po, orally, 8 hours after induction (positive control), read-out: Suppressing Rate, Slow reaction); 75% in experiment [1] (sc, 0.5 h, subcutaneously, 30 minutes after induction (positive control), read-out: Suppressing Rate, Immediate Reaction); 53% in experiment [1] (sc, subcutaneously, 8 hours after induction (positive control), read-out: Suppressing Rate, Slow reaction). The “effectiveness on oral administration” value in experiment [2] is listed as “no effectiveness”.

For the compound `COC(=O)/C=C/c1ccc2c(=O)c3[nH]nnc3c(=O)[nH]c2c1` [Example 16, 7-(2-methoxycarbonyl-(E)-ethenyl)-4(5H),10-dioxo-1H-1,2,3-triazolo[4,5-c][l]benzazepine], the IC50 in experiment [3] is 2.6 nM. The inhibition in vivo at 10 mg/kg in experiment [1] (setting [4]) came out at 79%; in experiment [1] (setting [5]), 80%.

Consider `CC(=O)/C=C/c1ccc2c(=O)c3[nH]nnc3c(=O)[nH]c2c1` [Example 20, 7-(3-oxo-(E)-butenyl)-4(5H),10-dioxo-1H-1,2,3-triazolo[4,5-c][l]benzazepine], for which, in experiment [3], the IC50 was found to be 2.9 nM. Besides, the inhibition in vivo at 10 mg/kg in experiment [1] (setting [4]) is 63%; in experiment [1] (setting [5]), 51%.

On to `CCOc1ccc2c(=O)c3[nH]nnc3c(=O)[nH]c2c1` [Example 27, 7-ethoxy-4(5H),10-dioxo-1H-1,2,3-triazolo[4,5-c][l]benzazepine], for which, in experiment [3], the IC50 came to 8.6 nM. In addition, the inhibition in vivo at 10 mg/kg in experiment [1] (setting [4]) stood at 48%; in experiment [1] (setting [5]), 55%.

Consider `COc1cc2[nH]c(=O)c3nn[nH]c3c(=O)c2cc1OC` [Example 43, 7,8-dimethoxy-4(5H),10-dioxo-1H-1,2,3-triazolo[4,5-c][l]benzazepine], for which the IC50 in experiment [3] was 1.4 nM. The inhibition in vivo at 10 mg/kg in experiment [1] (setting [4]) came to 59%; in experiment [1] (setting [5]), 53%.

On to `O=c1[nH]c2cc(CNS(=O)(=O)c3ccccc3)ccc2c(=O)c2[nH]nnc12` [Example 69, 7-(N-benzenesulfonylaminomethyl)-4(5H),10-dioxo-1H-1,2,3-triazolo [4,5-c][l]benzazepine], for which, in experiment [3], the IC50 came out at 3.5 nM. Moreover, the inhibition in vivo at 10 mg/kg worked out at 50% in experiment [1] (setting [4]) and 41% in experiment [1] (setting [5]).

As to `COc1ccc(C(=O)COc2ccc3[nH]c(=O)c4nn[nH]c4c(=O)c3c2)cc1` [Example 84, 8-(4-methoxyphenacyloxy)-4(5H),10-dioxo-1H-1,2,3-triazolo[4,5-c][l]benzazepine], the 50% inhibitory concentration (IC50) in experiment [3] stood at 3.9 nM. Also, the inhibition in vivo at 10 mg/kg in experiment [1] (setting [4]) turned out to be 48%; in experiment [1] (setting [5]), 40%.
